The test has as its system Thymidine kinase (Human herpesvirus 1). The conditions noted are these: Human alphaherpesvirus 1.

1 compound from ChEMBL document CHEMBL1125350, “L-thymidine is phosphorylated by herpes simplex virus type 1 thymidine kinase and inhibits viral growth” (J Med Chem, 1992) can be followed below.

Compound `Nc1ncnc2c1ncn2[C@H]1C[C@H](O)[C@@H](CO)O1` registered an ID50 of over 1000 µM.
